From ChEMBL document CHEMBL6153083, “Synthesis, Structural Modification, and Antismall Cell Lung Cancer Activity of 3-Arylisoquinolines with Dual Inhibitory Activity on Topoisomerase I and II” (J Med Chem, 2025)
Activity calls are given as the source filed them. The calls are words filed in the database; no cut-off is given here.

Tests used:
[1] = biological target: T1, DNA topoisomerase 1 (Homo sapiens) (UniProt P11387); experiment: Inhibition of Topo I (unknown origin) relaxation activity using pBR322 plasmid DNA as substrate at 25 to 100 uM incubated for 30 mins; details: dose 25-100 µM
T1 sequence (whole entry): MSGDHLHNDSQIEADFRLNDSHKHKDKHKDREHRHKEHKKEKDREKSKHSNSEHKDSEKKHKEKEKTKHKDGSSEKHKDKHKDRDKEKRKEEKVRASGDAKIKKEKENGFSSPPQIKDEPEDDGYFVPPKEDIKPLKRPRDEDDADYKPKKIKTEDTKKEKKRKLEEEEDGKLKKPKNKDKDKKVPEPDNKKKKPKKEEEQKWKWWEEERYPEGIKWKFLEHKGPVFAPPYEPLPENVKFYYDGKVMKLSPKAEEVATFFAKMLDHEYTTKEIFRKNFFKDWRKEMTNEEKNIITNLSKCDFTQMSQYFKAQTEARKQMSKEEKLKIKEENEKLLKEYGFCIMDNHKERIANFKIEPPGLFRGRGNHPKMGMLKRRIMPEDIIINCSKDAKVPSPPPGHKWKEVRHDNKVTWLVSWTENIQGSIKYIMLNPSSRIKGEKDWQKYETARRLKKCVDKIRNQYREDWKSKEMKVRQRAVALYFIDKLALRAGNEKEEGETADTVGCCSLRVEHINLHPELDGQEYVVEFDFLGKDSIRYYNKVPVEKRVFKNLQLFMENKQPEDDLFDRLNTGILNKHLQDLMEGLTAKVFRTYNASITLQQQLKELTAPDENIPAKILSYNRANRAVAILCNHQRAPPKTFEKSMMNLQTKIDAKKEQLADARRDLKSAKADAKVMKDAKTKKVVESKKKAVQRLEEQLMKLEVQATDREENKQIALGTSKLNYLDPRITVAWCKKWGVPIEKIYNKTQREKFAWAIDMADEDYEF

[2] = tested on: NCI-H146; experiment: Antiproliferative activity against human NCI-H146 cells incubated for 72 hrs; assay type: functional, cell-based; details: NCI-H146, 72 h
[3] = tested on: NCI-H209; experiment: Antiproliferative activity against human NCI-H209 cells incubated for 72 hrs; assay type: functional, cell-based; details: NCI-H209, 72 h
[4] = tested on: SHP77; experiment: Antiproliferative activity against human SHP77 cells incubated for 72 hrs; assay type: functional, cell-based; details: SHP77, 72 h
[5] = Antiproliferative activity against human BEAS-2B cells incubated for 72 hrs; assay type: toxicity, cell-based
[6] = tested on: NCI-H1048; experiment: Antiproliferative activity against human NCI-H1048 cells incubated for 72 hrs; assay type: functional, cell-based; details: NCI-H1048, 72 h
[7] = species: Homo sapiens; experiment: Inhibition of Topo II (unknown origin) relaxation activity using pBR322 plasmid DNA as substrate at 25 to 100 uM incubated for 30 mins in presence of ATP; details: dose 25-100 µM
[8] = tested on: NCI-H446; experiment: Induction of DNA damage in human NCI-H446 cells incubated for 48 hrs by comet assay; assay type: functional, cell-based; details: dose 1-8 µM
[9] = tested on: NCI-H1048; experiment: Inhibition of clonogenesis in human NCI-H1048 cells incubated for 14 to 21 days by crystal violet staining based analysis; assay type: functional, cell-based; details: dose 0.375-3 µM, time 14-21 day
[10] = tested on: NCI-H1048; experiment: Inhibition of cell migration in human NCI-H1048 cells incubated for 24 hrs by transwell assay; assay type: functional, cell-based; details: dose 0.375-3 µM
[11] = tested on: NCI-H446; experiment: Inhibition of cell invasion in human NCI-H446 cells incubated for 24 hrs by transwell assay; assay type: functional, cell-based
[12] = tested on: NCI-H1048; experiment: Inhibition of cell invasion in human NCI-H1048 cells incubated for 24 hrs by transwell assay; assay type: functional, cell-based
[13] = tested on: NCI-H446; experiment: Inhibition of cell migration in human NCI-H446 cells incubated for 24 hrs by wound-healing assay; assay type: functional, cell-based; details: dose 0.375-3 µM
[14] = tested on: NCI-H1048; experiment: Inhibition of cell migration in human NCI-H1048 cells incubated for 24 hrs by wound-healing assay; assay type: functional, cell-based; details: dose 0.375-3 µM
[15] = tested on: NCI-H446; experiment: Induction of cell cycle arrest in human NCI-H446 cells assessed as accumulation at S phase incubated for 48 hrs by PI staining based flow cytometry; assay type: functional; details: dose 1-8 µM
[16] = tested on: NCI-H446; experiment: Induction of apoptosis in human NCI-H446 cells assessed as reduction in cell viability incubated for 48 hrs by Geimsa staining based analysis; assay type: functional; details: dose 1-8 µM
[17] = tested on: NCI-H446; experiment: Induction of apoptosis in human NCI-H446 cells assessed as formation of membrane blebbing at 1 to 8 uM incubated for 48 hrs by Geimsa staining based analysis; assay type: functional, cell-based; details: dose 1-8 µM
[18] = tested on: NCI-H446; experiment: Induction of apoptosis in human NCI-H446 cells assessed as chromatin condensation at 1 to 8 uM incubated for 48 hrs by Geimsa staining based analysis; assay type: functional, cell-based; details: dose 1-8 µM
[19] = tested on: NCI-H446; experiment: Induction of mitochondrial dysfunction in human NCI-H446 cells assessed as increase in ROS level at 1 to 8 uM incubated for 48 hrs by DCFH-DA staining based flow cytometry; assay type: functional, cell-based; details: dose 1-8 µM
[20] = tested on: NCI-H446; experiment: Induction of apoptosis in human NCI-H446 cells assessed as increase in Bax level incubated for 48 hrs by Western blot analysis; assay type: functional, cell-based; details: dose 1-8 µM
[21] = tested on: NCI-H446; experiment: Induction of apoptosis in human NCI-H446 cells assessed as increase in cleaved caspase-3 level incubated for 48 hrs by Western blot analysis; assay type: functional, cell-based; details: dose 1-8 µM
[22] = tested on: NCI-H446; experiment: Induction of apoptosis in human NCI-H446 cells assessed as increase in cleaved caspase-9 level incubated for 48 hrs by Western blot analysis; assay type: functional, cell-based; details: dose 1-8 µM
[23] = tested on: NCI-H1048; experiment: Induction of apoptosis in human NCI-H1048 cells assessed as increase in Bax level incubated for 48 hrs by Western blot analysis; assay type: functional, cell-based
[24] = AUC (0 to t) in Sprague-Dawley rat at 10 mg/kg, ip measured after 24 hrs by LC-MS/MS analysis; assay type: ADME, organism-based; details: in vivo
[25] = MRT (0 to t) in Sprague-Dawley rat at 10 mg/kg, ip measured after 24 hrs by LC-MS/MS analysis; assay type: ADME, organism-based; details: in vivo
[26] = Acute toxicity in Kunming mouse assessed as animal death at 400 mg/kg, ip; assay type: organism-based; details: in vivo
[27] = Acute toxicity in Kunming mouse assessed as lethal dose; details: in vivo
[28] = Acute toxicity in Kunming mouse assessed as change in body weight at 300 mg/kg, ip measured for 10 days; assay type: organism-based; details: in vivo, 240 h, time 10 day
[29] = tested on: NCI-H446; experiment: Antitumor activity against human NCI-H446 cells xenografted in BALB/c nude mouse at 20 mg/kg, ip for 21 days relative to control; assay type: functional; details: NCI-H446, 504 h, time 21 day, read-out: TGI
[30] = tested on: NCI-H446; experiment: Antitumor activity against human NCI-H446 cells xenografted in BALB/c nude mouse assessed as decrease in tumor volume at 10 to 20 mg/kg, ip for 21 days; assay type: functional, organism-based; details: dose 10-20 mg/kg, time 21.0 day
[31] = Toxicity in BALB/c nude mouse xenografted with human NCI-H446 cells assessed as body weight change at 10 to 20 mg/kg, ip for 21 days; assay type: organism-based; details: in vivo, 504 h, dose 10-20 mg/kg, time 21 day
[32] = Toxicity in BALB/c nude mouse xenografted with human NCI-H446 cells assessed as deleterious effect in liver at 10 to 20 mg/kg, ip for 21 days by H and E staining based analysis; assay type: organism-based; details: in vivo, 504 h, dose 10-20 mg/kg, time 21 day
[33] = Toxicity in BALB/c nude mouse xenografted with human NCI-H446 cells assessed as deleterious effect in spleen at 10 to 20 mg/kg, ip for 21 days by H and E staining based analysis; assay type: organism-based; details: in vivo, 504 h, dose 10-20 mg/kg, time 21 day

CC1CC(C)CN(Cc2cc3c(cc2-c2cc4ccc5c(c4cn2)OCO5)OCO3)C1 (stereo unspecified)
inhibition [1]: Active | IC50 [2]: 22.8 µM | IC50 [3]: 36.8 µM | IC50 [4]: 7.92 µM | IC50 at 72 h [5]: 27.5 µM | IC50 [6]: 1.42 µM | inhibition [7]: Active; Exhibited Stronger Activity Against Topo Ii Compared To Topo I | Activity [8]: Dose-dependent-effect | inhibition [9]: Dose-dependent-effect; Potent Inhibitory Effect At Equivalent Efficacy As Etoposide | inhibition [10]: Dose-dependent-effect; Displayed Stronger Inhibitory Effect Than Etoposide | inhibition [11]: Dose-dependent-effect; Displayed Stronger Inhibitory Effect Than Etoposide | inhibition [12]: Dose-dependent-effect; Displayed Stronger Inhibitory Effect Than Etoposide | inhibition [13]: Dose-dependent-effect; Exhibited Superior Inhibitory Effect Compared To Etoposide At Same Concentration | inhibition [14]: Dose-dependent-effect; Exhibited Superior Inhibitory Effect Compared To Etoposide At Same Concentration | Activity [15]: Dose-dependent-effect | Activity [16]: Dose-dependent-effect | Activity [17]: Active | Activity [18]: Active | Activity [19]: Active | Activity [20]: Dose-dependent-effect | Activity [21]: Dose-dependent-effect | Activity [22]: Dose-dependent-effect | Activity [23]: Dose-dependent-effect | AUC(0-t) at 24 h [24]: 736 ng·h/mL | MRT last at 24 h [25]: 5.02 h | Activity [26]: Toxic | LD50 [27]: 300 mg/kg | Activity [28]: Non-toxic | inhibition in vivo at 20 mg/kg [29]: 82.2% | Activity [30]: Active; Exhibited Markedly Slow Growth Rate | Activity [31]: Non-toxic | Activity [32]: Non-toxic | Activity [33]: Non-toxic

CCC1CCCC(C)N1Cc1cc2c(cc1-c1cc3ccc4c(c3cn1)OCO4)OCO2 (stereo unspecified)
inhibition [1]: Active | IC50 [2]: 6.23 µM | IC50 [3]: 11.6 µM | IC50 [4]: 8.01 µM | IC50 at 72 h [5]: > 100 µM | IC50 [6]: 2.45 µM | inhibition [7]: Active; Exhibited Stronger Activity Against Topo Ii Compared To Topo I | Activity [8]: Dose-dependent-effect | inhibition [9]: Dose-dependent-effect | inhibition [10]: Dose-dependent-effect | inhibition [11]: Dose-dependent-effect | inhibition [12]: Dose-dependent-effect | inhibition [13]: Dose-dependent-effect | inhibition [14]: Dose-dependent-effect | Activity [15]: Dose-dependent-effect | Activity [16]: Dose-dependent-effect | Activity [17]: Active | Activity [18]: Active | Activity [19]: Active | Activity [20]: Dose-dependent-effect | Activity [21]: Dose-dependent-effect | Activity [22]: Dose-dependent-effect | Activity [23]: Dose-dependent-effect | AUC(0-t) at 24 h [24]: 1180 ng·h/mL | MRT last at 24 h [25]: 5.42 h | Activity [26]: Toxic | LD50 [27]: 300 mg/kg | Activity [28]: Non-toxic | inhibition in vivo at 20 mg/kg [29]: 85.5% | Activity [30]: Active; Exhibited Markedly Slow Growth Rate | Activity [31]: Non-toxic | Activity [32]: Non-toxic | Activity [33]: Non-toxic
